The subject of the first assay is JHOS2. As to the kind of experiment: drug sensitivity score (DSS) from 5-point dose-response viability curve (DSS (area-under-curve based score)); higher = more sensitive (stronger growth inhibition or killing); extreme values may be limits of the assay. The following applies: exposure time: 72 h; concentration range: 5 concentrations over 10,000-fold range. The method, boiled down:
(§1)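 Ovarian cancer and normal ovarian cell lines were tested in 384-well plates. Drugs were acoustically dispensed (Echo 550) in DMSO or water at five concentrations spanning a 10,000-fold range, then 1,500 cells per well were added and incubated 3 days at 37°C, 5% CO2. Viability was read by CellTiter-Glo luminescence on a PHERAstar FS. Drug sensitivity score was derived per cell line and drug with Breeze software; higher means more sensitive, zero means no response.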
Turning to `Cc1c(Cn2c(C)nc3c(C(=O)O)cc(N4CCOCC4)cc32)cccc1C(F)(F)F`, the drug sensitivity score is 0.
In turn, `Cc1ccc(C(=O)N(CCCN)[C@@H](c2oc3cc(Cl)ccc3c(=O)c2Cc2ccccc2)C(C)C)cc1` registered a drug sensitivity score of 4.8.
Compound `Cc1cccc(CC(=O)N2CCc3c2ccc(-c2cn(C)c4ncnc(N)c24)c3F)n1` gave a drug sensitivity score of 0.
Regarding `Cc1nc(Nc2n[nH]c3c2CN(C(=O)N[C@H](CN(C)C)c2ccccc2)C3(C)C)c2sccc2n1`, the drug sensitivity score amounted to 10.6.
With `Cc1ncc(Cl)cc1NCc1ccc(C(=O)N[C@@H](CC2CCCC2)C(=O)NC2CC2)s1`, the drug sensitivity score turned out to be 0.
`Cn1cc(-c2ccc(F)c(C(F)(F)F)c2)nc1C1CCN(c2ncnc3[nH]ncc23)CC1` showed a drug sensitivity score of 0.
Same read-out and setting: next, `Cn1cc(C2=Nc3cc(NC(=O)C(N)C4CCCCC4)cc4c3C2=CNNC4=O)cn1` (stereo not drawn): 5.1; `N#Cc1ccc(COC[C@H]2O[C@@H](n3c(NCc4ccc(Cl)c(Cl)c4)nc4c(N)ncnc43)[C@H](O)[C@@H]2O)cc1`: 1; `NCC(=O)Nc1ccc(-n2nc(C(F)(F)F)cc2-c2ccc3c(ccc4ccccc43)c2)cc1`: 1.5.
The same measure, in the same setting: next, `NC[C@@](O)(c1ccc(Cl)cc1)c1ccc(-c2cn[nH]c2)cc1`: 2.8; `Nc1nccc(-c2c(-c3ccc(F)cc3)ncn2C2CCCCC2)n1`: 0; `Nc1ncnc2c1c(COc1cccc(Cl)c1)nn2C1CCOCC1`: 0.
Same read-out and setting: with `O=C(NOC[C@H](O)CO)c1ccc(F)c(F)c1Nc1ccc(I)cc1F` the figure was 3.2; with `O=C(Nc1ccc2[nH]nc(-c3ccncc3)c2c1)[C@@H]1CCN(CC(=O)N2CCN(c3ccc(-c4ncccn4)cc3)CC2)C1`, 8.4.
Consider `O=C(O)c1ccc(-c2c[nH]c3ncc(-c4ccccc4)cc23)cc1C1CCCC1`, for which the drug sensitivity score turned out to be 0.
Compound `O=C(O)c1ccc(CN2CCC(CN[C@@H]3C[C@H]3c3ccccc3)CC2)cc1` registered a drug sensitivity score of 0.

For another assay, the system named is OVCAR4. The description is as above. The following applies: exposure time: 72 h; concentration range: 5 concentrations over 10,000-fold range. The method, boiled down: as §1
On to `CC(C)(C)C[C@@H]1N[C@@H](C(=O)N[C@H]2CC[C@H](O)CC2)[C@H](c2cccc(Cl)c2F)[C@]12C(=O)Nc1cc(Cl)ccc12`, for which the drug sensitivity score stood at 0.1.
Compound `CC(C)Oc1ccc(C(=O)N[C@H](CNC(=O)CN(C)C)Cc2ccc(-c3cn4cccc([C@H](C)O)c4n3)cc2)cc1Cl` had a drug sensitivity score of 4.2.
On the same count and under the same terms, with `CC[C@@H]1[C@H](F)C(=O)N[C@@H]1COc1nccc2cc(C(N)=O)c(OC)cc12` the figure was 0.4.
On the same count and under the same terms, with `CCc1cncnc1N1CCN(Cc2nc3ccc(C(F)(F)F)cc3[nH]2)CC1` the figure was 2.3.
On the same count and under the same terms, next, `CCn1c(-c2nonc2N)nc2cnc(Oc3cccc(NC(=O)c4ccc(OCCN5CCOCC5)cc4)c3)cc21`: 0.6; `CN(C)CC#Cc1ccc(OCCCc2sc(N3CCc4cccc(C(=O)Nc5nc6ccccc6s5)c4C3)nc2C(=O)O)c(F)c1`: 3.5; `CN(c1ncccc1CNc1nc(Nc2ccc3c(c2)CC(=O)N3)ncc1C(F)(F)F)S(C)(=O)=O`: 4.7.
Take `CNC(=O)c1ccc(C)c(-n2c(C)cc(OCc3ccc(F)cc3F)c(Br)c2=O)c1`: the drug sensitivity score worked out at 0.
Same read-out and setting: with `CNS(=O)(=O)Nc1nccc(Cc2c(C)c3ccc(Oc4ncccn4)cc3oc2=O)c1F` the figure was 1.7; with `CNc1ncc2cc(-c3cc(NC(=O)NCCC(C)(C)C)c(F)cc3C)c(C)nc2n1`, 3.7.
In turn, `CO[C@@H](C)Cn1c(=O)n(C)c2cnc3ccc(-c4cncc(C(C)(C)O)c4)cc3c21` registered a drug sensitivity score of 9.8.
Still for that read-out and setting: with `COc1ccc(Cn2ccc3ccc(C(=O)NO)cc32)cc1` the figure was 3.6; with `C[C@@H](Oc1ccc2[nH]nc(/C=C/c3cnn(CCO)c3)c2c1)c1c(Cl)cncc1Cl`, 2.5; with `C[C@@H]1CN(CC(=O)Nc2ccc3c(c2)Cc2cccc(-c4cc(=O)cc(N5CCOCC5)o4)c2S3)C[C@H](C)O1`, 0.7.
Take `C[C@H]1C[C@@H](n2c(Nc3ccc(OC(F)(F)F)cc3)nc3cc(CCC(=O)O)ccc32)CC(C)(C)C1`: the drug sensitivity score was 0.
`Cc1c(-c2c(-c3ccc(F)o3)sc3ncnc(O[C@H](Cc4ccccc4OCc4ccnn4CC(F)(F)F)C(=O)O)c23)ccc(OCCN2CCN(C)CC2)c1Cl` gave a drug sensitivity score of 0.6.
Still for that read-out and setting: next, `Cc1c(Cn2c(C)nc3c(C(=O)O)cc(N4CCOCC4)cc32)cccc1C(F)(F)F`: 0.
On to `Cc1ccc(C(=O)N(CCCN)[C@@H](c2oc3cc(Cl)ccc3c(=O)c2Cc2ccccc2)C(C)C)cc1`, for which the drug sensitivity score turned out to be 3.4.
Same read-out and setting: with `Cc1cccc(CC(=O)N2CCc3c2ccc(-c2cn(C)c4ncnc(N)c24)c3F)n1` the figure was 1.1; with `Cc1nc(Nc2n[nH]c3c2CN(C(=O)N[C@H](CN(C)C)c2ccccc2)C3(C)C)c2sccc2n1`, 10.2; with `Cc1ncc(Cl)cc1NCc1ccc(C(=O)N[C@@H](CC2CCCC2)C(=O)NC2CC2)s1`, 0.
Take `Cn1cc(-c2ccc(F)c(C(F)(F)F)c2)nc1C1CCN(c2ncnc3[nH]ncc23)CC1`: the drug sensitivity score amounted to 0.
As for `Cn1cc(C2=Nc3cc(NC(=O)C(N)C4CCCCC4)cc4c3C2=CNNC4=O)cn1` (stereo not drawn), the drug sensitivity score worked out at 15.4.
On to `N#Cc1ccc(COC[C@H]2O[C@@H](n3c(NCc4ccc(Cl)c(Cl)c4)nc4c(N)ncnc43)[C@H](O)[C@@H]2O)cc1`, for which the drug sensitivity score was determined as 0.3.
On the same count and under the same terms, next, `NCC(=O)Nc1ccc(-n2nc(C(F)(F)F)cc2-c2ccc3c(ccc4ccccc43)c2)cc1`: 0.
In turn, `NC[C@@](O)(c1ccc(Cl)cc1)c1ccc(-c2cn[nH]c2)cc1` registered a drug sensitivity score of 1.1.
In turn, `Nc1nccc(-c2c(-c3ccc(F)cc3)ncn2C2CCCCC2)n1` registered a drug sensitivity score of 0.
For the compound `Nc1ncnc2c1c(COc1cccc(Cl)c1)nn2C1CCOCC1`, the drug sensitivity score was found to be 0.
For `O=C(NOC[C@H](O)CO)c1ccc(F)c(F)c1Nc1ccc(I)cc1F`, the drug sensitivity score was determined as 2.1.
On to `O=C(Nc1ccc2[nH]nc(-c3ccncc3)c2c1)[C@@H]1CCN(CC(=O)N2CCN(c3ccc(-c4ncccn4)cc3)CC2)C1`, for which the drug sensitivity score turned out to be 1.7.
Consider `O=C(O)c1ccc(-c2c[nH]c3ncc(-c4ccccc4)cc23)cc1C1CCCC1`, for which the drug sensitivity score is 0.
Consider `O=C(O)c1ccc(CN2CCC(CN[C@@H]3C[C@H]3c3ccccc3)CC2)cc1`, for which the drug sensitivity score is 0.3.
